# Test results reported in ChEMBL document CHEMBL1133917, “Synthesis and pharmacology of modified amidine isoxazoline glycoprotein IIb/IIIa receptor antagonists” (Bioorg Med Chem Lett, 2001).
# System: Canis familiaris
# Assay: Percent inhibition of aggregation of platelet rich plasma at a dose of 0.025 mg/kg, iv, in canine model at 24 hr
# Assay type: functional
# Details: Canis lupus familiaris
row,SMILES,inhibition in vivo at 0.025 mg/kg
1,COc1ccccc1CNC(=N)c1ccc(C2=NO[C@@H](CC(=O)NC[C@H](NS(=O)(=O)c3ccccc3C)C(=O)O)C2)cc1,80%

# System: Canis familiaris
# Assay: Percent inhibition of ex vivo platelet aggregation of rich plasma at a dose of 0.025 mg/kg, iv, in canine model at 5 hrs
# Assay type: functional
# Details: Canis lupus familiaris
row,SMILES,inhibition in vivo at 0.025 mg/kg
1,CCNC(=N)c1ccc(C2=NO[C@@H](CC(=O)NC[C@H](NS(=O)(=O)c3ccccc3C)C(=O)O)C2)cc1,40%

# System: Canis familiaris
# Assay: Percent inhibition of aggregation of platelet rich plasma at a dose of 0.025 mg/kg, iv, in canine model after 30 min
# Assay type: functional
# Details: Canis lupus familiaris, 0.5 h
row,SMILES,inhibition in vivo at 0.025 mg/kg
1,CCNC(=N)c1ccc(C2=NOC(CC(=O)NCCC(=O)O)C2)cc1 (centres undefined),70%

# Organism: Homo sapiens
# Assay: Concentration required for maximal in vitro inhibition of aggregation of human platelet rich plasma (hPRP)
# Assay type: functional
# Details: not given
row,SMILES,IC50
1,CCCCNC(=N)c1ccc(C2=NOC(CC(=O)NCCC(=O)O)C2)cc1 (centres undefined),20 nM
2,N/C(=N/Cc1cccc(F)c1)c1ccc(C2=NOC(CC(=O)NCCC(=O)O)C2)cc1 (centres undefined),12 nM
3,N=C(N)c1ccc(C2=NO[C@@H](CC(=O)NCCC(=O)O)C2)cc1,60 nM
4,N/C(=N/Cc1ccccc1)c1ccc(C2=NOC(CC(=O)NCCC(=O)O)C2)cc1 (centres undefined),200 nM
5,CC(C)CCNC(=N)c1ccc(C2=NOC(CC(=O)NCCC(=O)O)C2)cc1 (centres undefined),1300 nM
6,N=C(N)c1ccc(C2=NOC(CC(=O)NCCC(=O)O)C2)cc1 (centres undefined),240 nM
7,CCCCCNC(=N)c1ccc(C2=NOC(CC(=O)NCCC(=O)O)C2)cc1 (centres undefined),300 nM
8,N/C(=N/Cc1ccccc1)c1ccc(C2=NO[C@@H](CC(=O)NCCC(=O)O)C2)cc1,87 nM
9,CCCNC(=N)c1ccc(C2=NOC(CC(=O)NCCC(=O)O)C2)cc1 (centres undefined),120 nM

# More lines, now with the values ahead:
row,IC50,SMILES
1,16 nM,CCCCNC(=N)c1ccc(C2=NO[C@@H](CC(=O)NC[C@H](NS(=O)(=O)c3ccccc3C)C(=O)O)C2)cc1
2,43 nM,CCNC(=N)c1ccc(C2=NO[C@@H](CC(=O)NC[C@H](NS(=O)(=O)c3ccccc3C)C(=O)O)C2)cc1
3,40 nM,COc1ccccc1CNC(=N)c1ccc(C2=NO[C@@H](CC(=O)NC[C@H](NS(=O)(=O)c3ccccc3C)C(=O)O)C2)cc1
4,55 nM,COc1ccccc1CNC(=N)c1ccc(C2=NO[C@@H](CC(=O)NC[C@H](NS(=O)(=O)c3c(C)noc3C)C(=O)O)C2)cc1
5,51 nM,CCNC(=N)c1ccc(C2=NO[C@@H](CC(=O)NC[C@H](NS(=O)(=O)c3cccc(C)c3)C(=O)O)C2)cc1
6,62 nM,CCCCNC(=N)c1ccc(C2=NO[C@@H](CC(=O)NC[C@H](NC(=O)OCCCC)C(=O)O)C2)cc1
7,32 nM,COc1ccccc1CNC(=N)c1ccc(C2=NOC(CC(=O)NCCC(=O)O)C2)cc1 (centres undefined)
8,55 nM,Cc1noc(C)c1S(=O)(=O)N[C@@H](CNC(=O)C[C@H]1CC(c2ccc(C(=N)NCc3cccc(F)c3)cc2)=NO1)C(=O)O
9,82 nM,CCCCOC(=O)N[C@@H](CNC(=O)C[C@H]1CC(c2ccc(C(=N)NCC)cc2)=NO1)C(=O)O
10,50 nM,Cc1cccc(S(=O)(=O)N[C@@H](CNC(=O)C[C@H]2CC(c3ccc(C(=N)N)cc3)=NO2)C(=O)O)c1
11,54 nM,Cc1ccccc1S(=O)(=O)N[C@@H](CNC(=O)C[C@H]1CC(c2ccc(C(=N)N)cc2)=NO1)C(=O)O

# System: Canis familiaris
# Assay: Percent inhibition of aggregation of platelet rich plasma at a dose of 0.025 mg/kg, iv, in canine model at 5 hrs
# Assay type: functional
# Details: Canis lupus familiaris
row,SMILES,inhibition in vivo at 0.025 mg/kg
1,CCNC(=N)c1ccc(C2=NOC(CC(=O)NCCC(=O)O)C2)cc1 (centres undefined),20%
